Results on 18 compounds are retold here after ChEMBL document CHEMBL3046352, “Synthesis, anti-HSV-1, and cytotoxic activities of some new pyrazole- and isoxazole-based heterocycles” (Med Chem Res, 2011).

Values after ≈ are worked out from the molar mass of the structure shown. Active and inactive are the calls of the source. The calls are words filed in the database; no cut-off is given here.

Data set [1] concerns Human alphaherpesvirus 1. As to the kind of experiment: Antiviral activity against Human herpesvirus 1 infected Vero cells assessed as reduction in viral plaque after 66 hr relative to control. Type of data set: functional. On the set-up: concentration or dose not given beside the values.
Data set [2] relates to Human alphaherpesvirus 1. The data set is described as follows: Antiviral activity against Human herpesvirus 1 infected Vero cells after 66 hr. Type of data set: functional.
A short description of data set [3]: Cytotoxicity against Chlorocebus aethiops (African green monkey) Vero cells assessed as concentration required for 50% loss of monolayer around viral plaque after 66 hr. In kind it is cell-based. As to conditions: chlorocebus sabaeus, read-out: Activity.

As for `CC(=N/NC(=O)c1cc(-c2ccc(Cl)cc2)n(-c2ccccc2)n1)/C(Cl)=N\Nc1ccc(F)cc1`, the Activity with Human alphaherpesvirus 1 [1] worked out at 69%. The compound further displayed an MAC in the data set with Human alphaherpesvirus 1 [2] of 0.1 mg/mL. For the same compound, the CC50 at 66 h in data set [3] is 20 µg/mL (≈ 39.3 µM).

Regarding `O=C(N/N=C/c1ccc(F)cc1)c1cc(-c2ccc(Cl)cc2)n(-c2ccccc2)n1`, the Activity in the data set on Human alphaherpesvirus 1 [1] turned out to be 67%. In the data set on Human alphaherpesvirus 1 [2], the MAC was determined as 0.1 mg/mL. In addition, the CC50 at 66 h in data set [3] was determined as 20 µg/mL (≈ 47.7 µM).

For the compound `O=C(N/N=C/c1ccc(F)cc1)c1cc(-c2ccc(Cl)cc2)on1`, the Activity with Human alphaherpesvirus 1 [1] was 56%. For the same compound, the CC50 at 66 h in data set [3] is 10 µg/mL (≈ 29.1 µM).

With `CC(=N/NC(=O)c1cc(-c2ccc(Cl)cc2)on1)/C(Cl)=N\Nc1ccc(F)cc1`, the Activity in the data set on Human alphaherpesvirus 1 [1] was 51%. The MAC with Human alphaherpesvirus 1 [2] worked out at 0.1 mg/mL. The CC50 at 66 h in data set [3] is 20 µg/mL (≈ 46.1 µM).

Regarding `O=C(NNC(=S)Nc1ccccc1)c1cc(-c2ccc(Cl)cc2)on1`, the Activity with Human alphaherpesvirus 1 [1] is on record as 19%. The compound also had an MAC with Human alphaherpesvirus 1 [2] of 0.1 mg/mL. For the same compound, in data set [3], the CC50 at 66 h came out at 20 µg/mL (≈ 53.6 µM).

As for `CC1=NN(C(=O)c2cc(-c3ccc(Cl)cc3)n(-c3ccccc3)n2)C(=O)/C1=N/Nc1ccc(F)cc1`, the result with Human alphaherpesvirus 1 [1] was inactive. Further, the CC50 at 66 h in data set [3] was found to be 20 µg/mL (≈ 39.9 µM).

Regarding `C[C@@]1(CO)[C@H](O)CC[C@@]2(C)[C@H]1CC[C@H]1C[C@@H]3C[C@@]12CC[C@]3(O)CO` [APHIDICOLIN], the Activity in the data set on Human alphaherpesvirus 1 [1] is given as 100%. In addition, the MAC in the data set on Human alphaherpesvirus 1 [2] was 0.005 mg/mL. The CC50 at 66 h in data set [3] was found to be 10 µg/mL (≈ 29.5 µM).

Consider `O=C(N/N=c1\scc(-c2ccc(Cl)cc2)n1-c1ccccc1)c1cc(-c2ccc(Cl)cc2)on1`, for which the result in the data set with Human alphaherpesvirus 1 [1] was inactive. Moreover, in data set [3], the CC50 at 66 h came to 20 µg/mL (≈ 39.4 µM).

With `Clc1ccc(-c2cc(-c3nnc(Nc4ccccc4)s3)no2)cc1`, the result in the data set on Human alphaherpesvirus 1 [1] was inactive. Also, the CC50 at 66 h in data set [3] turned out to be 20 µg/mL (≈ 56.4 µM).

With `NNC(=O)c1cc(-c2ccc(Cl)cc2)n(-c2ccccc2)n1`, in the data set on Human alphaherpesvirus 1 [1], the Activity is 65%. In addition, the MAC in the data set with Human alphaherpesvirus 1 [2] was 0.1 mg/mL. For the same compound, the CC50 at 66 h in data set [3] came out at 20 µg/mL (≈ 63.9 µM).

Consider `O=C(N/N=C1/S/C(=C\c2ccc(F)cc2)C(=O)N1c1ccccc1)c1cc(-c2ccc(Cl)cc2)n(-c2ccccc2)n1`, for which the result with Human alphaherpesvirus 1 [1] was inactive. In addition, in data set [3], the CC50 at 66 h stood at 30 µg/mL (≈ 50.5 µM).

Regarding `O=C(N/N=c1\scc(-c2ccc(Cl)cc2)n1-c1ccccc1)c1cc(-c2ccc(Cl)cc2)n(-c2ccccc2)n1`, the result in the data set with Human alphaherpesvirus 1 [1] was inactive. Besides, the CC50 at 66 h in data set [3] is 20 µg/mL (≈ 34.3 µM).

Turning to `O=C(NN1C(=O)c2ccccc2C1=O)c1cc(-c2ccc(Cl)cc2)on1`, the outcome in the data set with Human alphaherpesvirus 1 [1] was inactive. In the data set with Human alphaherpesvirus 1 [2], this compound showed an MAC of 0.1 mg/mL. In data set [3], the CC50 at 66 h worked out at 10 µg/mL (≈ 27.2 µM).

`CC1=NN(C(=O)c2cc(-c3ccc(Cl)cc3)on2)C(=O)/C1=N/Nc1ccc(F)cc1`: in the data set with Human alphaherpesvirus 1 [1], the outcome was inactive. In addition, the CC50 at 66 h in data set [3] was determined as 20 µg/mL (≈ 47 µM).

As to `NNC(=O)c1cc(-c2ccc(Cl)cc2)on1`, the Activity in the data set on Human alphaherpesvirus 1 [1] stood at 43%. Moreover, the MAC in the data set with Human alphaherpesvirus 1 [2] came out at 0.1 mg/mL. Moreover, the CC50 at 66 h in data set [3] stood at 10 µg/mL (≈ 42.1 µM).

For `O=C(N/N=C1/S/C(=C\c2ccc(F)cc2)C(=O)N1c1ccccc1)c1cc(-c2ccc(Cl)cc2)on1`, the result in the data set on Human alphaherpesvirus 1 [1] was inactive. The CC50 at 66 h in data set [3] is 20 µg/mL (≈ 38.5 µM).

As for `O=C(NNC(=S)Nc1ccccc1)c1cc(-c2ccc(Cl)cc2)n(-c2ccccc2)n1`, in the data set with Human alphaherpesvirus 1 [1], the outcome was inactive. For the same compound, the CC50 at 66 h in data set [3] was determined as 20 µg/mL (≈ 44.6 µM).

As to `Clc1ccc(-c2cc(-c3nnc(Nc4ccccc4)s3)nn2-c2ccccc2)cc1`, the result in the data set on Human alphaherpesvirus 1 [1] was inactive. Besides, in data set [3], the CC50 at 66 h was determined as 30 µg/mL (≈ 69.8 µM).
